PMC9245717, “Phylogenomic and functional characterization of an evolutionary conserved cytochrome P450-based insecticide detoxification mechanism in bees” (Proceedings of the National Academy of Sciences of the …, 2022)

Key:
[1] = system: T1, Andrena vaga CYP9FT2; assay: fluorescent probe saturation kinetics, Michaelis-Menten; type: biochemical; settings: NADPH; recombinant microsomes
T1 construct: recombinant, baculovirus, High-5 (Trichoplusia ni) cell microsomes; coexpressed with A. mellifera CPR (XP_006569769.1)

[2] = system: T2, Colletes cunicularius CYP9FZ2; assay: as above; type: biochemical; settings: NADPH; recombinant microsomes
T2 construct: recombinant, baculovirus, High-5 (Trichoplusia ni) cell microsomes; coexpressed with A. mellifera CPR (XP_006569769.1)

[3] = system: T3, Xylocopa violacea CYP9Q18; assay: as above; type: biochemical; settings: NADPH; recombinant microsomes
T3 construct: recombinant, baculovirus, High-5 (Trichoplusia ni) cell microsomes; coexpressed with A. mellifera CPR (XP_006569769.1)

[4] = system: T4, Melitta hemorrhoidalis CYP9FU3; assay: as above; parameters: species or system Melitta haemorrhoidalis; settings: NADPH; recombinant microsomes
T4 construct: recombinant, baculovirus, High-5 (Trichoplusia ni) cell microsomes; coexpressed with A. mellifera CPR (XP_006569769.1)

[5] = target: T5, A. mellifera CYP9Q3 (Apis mellifera, UniProt A0A7M7LMV1); assay: UPLC-MS/MS depletion and metabolite formation assay; type: biochemical; settings: 10 µM substrate; NADPH regeneration system; 2 h, 30 °C; recombinant microsomes
T5 construct: gene LOC408453; recombinant, baculovirus, High-5 (Trichoplusia ni) cell microsomes; coexpressed with A. mellifera CPR (XP_006569769.1)
T5 sequence (A0A7M7LMV1 1-517): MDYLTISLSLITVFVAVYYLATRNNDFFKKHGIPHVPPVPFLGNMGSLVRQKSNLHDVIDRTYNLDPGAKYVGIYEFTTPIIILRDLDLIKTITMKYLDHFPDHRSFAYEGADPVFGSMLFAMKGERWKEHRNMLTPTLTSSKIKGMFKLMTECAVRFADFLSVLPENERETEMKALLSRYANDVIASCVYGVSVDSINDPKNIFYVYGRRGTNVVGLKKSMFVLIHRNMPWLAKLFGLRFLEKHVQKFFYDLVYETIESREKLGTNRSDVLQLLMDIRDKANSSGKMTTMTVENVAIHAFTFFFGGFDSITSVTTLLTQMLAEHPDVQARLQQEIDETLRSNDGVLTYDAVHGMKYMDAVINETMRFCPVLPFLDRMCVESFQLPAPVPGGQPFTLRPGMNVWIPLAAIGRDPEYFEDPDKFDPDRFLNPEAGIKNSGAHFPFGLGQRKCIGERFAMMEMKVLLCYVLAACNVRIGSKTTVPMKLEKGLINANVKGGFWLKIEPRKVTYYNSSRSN

| SMILES | Km [1] [µM] | Km [2] [µM] | Km [3] [µM] | Km [4] [µM] | UPLC-MS/MS depletion and metabolite formation assay [5] |
| --- | --- | --- | --- | --- | --- |
| O=c1cc(C(F)(F)F)c2ccc(OCOCc3ccccc3)cc2o1 [BOMFC, 7-benzyloxymethoxy-4-trifluoromethyl coumarin] | 7.43 | 14.7 | 15.2 | 8.16 |  |
| O=C1C=C(N(Cc2ccc(Cl)nc2)CC(F)F)CO1 [flupyradifurone] |  |  |  |  | FPF metabolite formation was remarkably uniform among all the P450s tested |
